Experimental data from patent publication US20030096379A1, “Method for producing tryptamine derivatives” (priority 2001, published 2003).

T1: synAAAD (synthetic gene based on pkAAAD protein sequence) (Sus scrofa, UniProt P80041)
T1 construct: made in house; host or cells: E. coli (pET-15 vector)
T1 sequence (P80041 1-486): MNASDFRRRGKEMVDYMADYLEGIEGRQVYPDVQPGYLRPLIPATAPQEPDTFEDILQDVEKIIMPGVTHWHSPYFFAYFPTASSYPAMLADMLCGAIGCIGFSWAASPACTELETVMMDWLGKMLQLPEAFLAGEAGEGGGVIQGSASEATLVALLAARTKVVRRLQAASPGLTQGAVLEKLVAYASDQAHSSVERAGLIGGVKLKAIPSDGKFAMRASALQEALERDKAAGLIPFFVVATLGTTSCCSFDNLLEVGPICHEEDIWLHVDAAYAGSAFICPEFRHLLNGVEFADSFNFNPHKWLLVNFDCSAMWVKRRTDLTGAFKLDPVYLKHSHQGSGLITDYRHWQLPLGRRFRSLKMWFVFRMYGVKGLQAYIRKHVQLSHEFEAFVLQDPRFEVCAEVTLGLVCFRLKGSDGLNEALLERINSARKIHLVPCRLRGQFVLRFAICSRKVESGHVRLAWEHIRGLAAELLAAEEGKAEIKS

T2: pig kidney aromatic amino acid decarboxylase (pkAAAD) (Sus scrofa, UniProt P80041)
T2 construct: Frozen tissue was partially thawed in lysis buffer, then it was extracted and partially purified; from tissue; host or cells: pig kidney
T2 sequence (P80041 1-486): T1 sequence (P80041 1-486)

B1: synAAAD: enzyme from synthetic gene optimized for E. coli expression, based on the pkAAAD protein sequence (protein, UniProt P80041 1-486, looked up)
Aromatic-L-amino-acid …: T1 sequence (P80041 1-486)
modifications: codon-optimized synthetic gene
B2: pkAAAD: aromatic amino acid decarboxylase extracted from pig kidney tissue, E.C. 4.1.1.28 (protein, UniProt P80041 1-486, looked up)
Aromatic-L-amino-acid …: T1 sequence (P80041 1-486)

Columns and labels:
[1] = target: T3, E. coli DH5α tryptophan synthase (TrpBA) (Escherichia coli, UniProt P0A879); assay type: biochemical; parameters: key: +: a clear ninhydrin-positive spot at the Rf of standard tryptophan derivatives after 16-65 h; (+): a weak spot in the product region; −: no product observed; NR: experiment not run; settings: indole derivative + L-serine + PLP, 37° C., 16-65 h, ninhydrin
T3 construct: made in house; host or cells: E. coli LMG194 (pBAD) or BL-21 (pET)
T3 sequence (P0A879 whole entry): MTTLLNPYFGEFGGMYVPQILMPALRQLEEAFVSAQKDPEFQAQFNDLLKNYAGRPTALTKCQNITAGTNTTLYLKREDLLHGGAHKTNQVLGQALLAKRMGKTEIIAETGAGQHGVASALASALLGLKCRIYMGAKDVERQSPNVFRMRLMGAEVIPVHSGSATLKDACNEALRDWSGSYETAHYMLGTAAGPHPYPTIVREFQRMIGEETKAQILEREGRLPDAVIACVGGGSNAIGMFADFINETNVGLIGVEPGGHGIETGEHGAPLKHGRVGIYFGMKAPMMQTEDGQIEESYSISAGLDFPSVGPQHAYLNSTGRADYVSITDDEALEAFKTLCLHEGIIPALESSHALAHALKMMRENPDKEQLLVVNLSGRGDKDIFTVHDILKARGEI
T3 sequence (P0A877 whole entry, further chain): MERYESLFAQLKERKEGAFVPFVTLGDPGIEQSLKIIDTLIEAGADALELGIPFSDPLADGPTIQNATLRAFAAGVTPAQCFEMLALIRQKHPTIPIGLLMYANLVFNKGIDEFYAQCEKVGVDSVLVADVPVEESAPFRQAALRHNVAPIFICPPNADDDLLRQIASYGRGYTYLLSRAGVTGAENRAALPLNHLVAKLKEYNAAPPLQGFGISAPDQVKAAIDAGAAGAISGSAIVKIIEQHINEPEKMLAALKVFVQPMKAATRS
Experimental: (§1) A mixture containing 2 μmole of the indole derivative, 0.05 μmole of PLP and 50 μmol of L-serine in 40 mM KPi buffer in 8% v/v ethanol water, pH 7.5, was warmed to 37° C., then enzyme solution was added to give a final volume of 1 mL. Aliquots (100 μL) were quenched at intervals of 2, 6, and 24 hours or more in microcentrifuge capsules containing 25 μL of 6 M HCl. The quenched samples were evaporated in a Savant Speed-vac. The residues were resuspended in methanol/water (1:1, 50 μL) and analyzed by TLC on Silica gel GF254 plates alongside tryptophan and tryptamine standards, eluting with CH2Cl2/EtOH/H2O/HOAc 77:20:2:1. Products were visualized first by using short-wave UV light, then with ninhydrin spray reagent (1/1/98 w/v/v ninhydrin/HOAc/EtOH) followed by heating.
(§2) Substituted indoles were incubated with L-serine, PLP and enzyme (TrpBA or TnA) prior to TLC analysis as generally described in Example 6. Serine, which can be used instead of pyruvate and ammonia for tryptophan synthesis with TnA, was employed as the 3-carbon acid because pyruvate tended to obscure the tryptophan product spots when plates were visualized with ninhydrin. TnA-catalyzed formation of tryptophan was also faster when serine was the 3-carbon donor. Reaction rates for several substrates were also estimated by HPLC.
(§3) In Table 4, “+” indicates a clear ninhydrin-positive spot at the Rf of standard tryptophan derivatives after 16-65 h; “(+)” indicates a weak spot in the product region; “−” means no product observed, “NR” means experiment not run. ESMS=electrospray mass spectrometry. Unless otherwise indicated, the mass value given represents the singly-protonated molecular ion (M+1).

[2] = target: T4, tryptophanase (TnA) (Escherichia coli, UniProt P0A853); assay type: biochemical, E. coli; parameters: key: +: a clear ninhydrin-positive spot at the Rf of standard tryptophan derivatives after 16-65 h; (+): a weak spot in the product region; −: no product observed; NR: experiment not run; settings: indole derivative + L-serine + PLP, 37° C., 16-65 h, ninhydrin
T4 construct: made in house; host or cells: E. coli LMG194 (pBAD) or BL-21 (pET)
T4 sequence (P0A853 whole entry): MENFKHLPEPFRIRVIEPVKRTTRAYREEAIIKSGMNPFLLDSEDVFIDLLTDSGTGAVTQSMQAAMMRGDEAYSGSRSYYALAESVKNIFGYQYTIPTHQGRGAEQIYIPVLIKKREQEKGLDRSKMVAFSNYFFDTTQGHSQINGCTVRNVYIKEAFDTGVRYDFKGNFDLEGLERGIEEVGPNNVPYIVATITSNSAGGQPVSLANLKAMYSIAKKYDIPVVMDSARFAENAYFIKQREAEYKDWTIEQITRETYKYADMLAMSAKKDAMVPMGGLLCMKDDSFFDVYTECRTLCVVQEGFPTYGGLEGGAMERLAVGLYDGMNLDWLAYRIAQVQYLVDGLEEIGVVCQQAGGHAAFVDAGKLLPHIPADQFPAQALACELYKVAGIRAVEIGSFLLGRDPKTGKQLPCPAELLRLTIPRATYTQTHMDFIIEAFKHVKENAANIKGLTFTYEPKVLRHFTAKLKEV
Experimental: as §1, §2, §3

[3] = target: T1, synAAAD (synthetic gene based on pkAAAD protein sequence); experiment: Substrate screen for tryptophan decarboxylation, SynAAAD; assay type: biochemical; parameters: key: +: a clear ninhydrin-positive spot at the Rf of standard tryptophan derivatives after 16-65 h; (+): a weak spot in the product region; −: no product observed; NR: experiment not run; settings: tryptophan derivative, PLP, pH 7.5, 37° C.
Experimental: A mixture containing 1 μmole of the tryptophan derivative, 0.05 μmole of PLP and 50 μmol of L-serine in 40 mM pH 7.5 KPi buffer was warmed to 37° C., then enzyme solution was added to give a final volume of 1 mL. Aliquots (100 HL) were quenched at intervals and were evaporated in a Savant Speed-vac as in Example 6. For TLC analysis, CH2Cl2/EtOH/H2O/HOAc 49:49:1:1 was used as the solvent. The plates were visualized with short-wave UV light and ninhydrin as in Example 6.
HPLC techniques were used to monitor the decarboxylation of substituted tryptophans. Mass spectral analysis of the collected HPLC peaks was used to confirm the identity of several tryptamine derivatives, as shown in Table 5.

[4] = target: T2, pig kidney aromatic amino acid decarboxylase (pkAAAD); experiment: Substrate screen for tryptophan decarboxylation, pkAAAD; assay type: biochemical; parameters: key: +: a clear ninhydrin-positive spot at the Rf of standard tryptophan derivatives after 16-65 h; (+): a weak spot in the product region; −: no product observed; NR: experiment not run; settings: tryptophan derivative, PLP, pH 7.5, 37° C.
[5] = Decarboxylase activity of the enzyme preparations (Ehrlich's reagent); assay type: biochemical
Experimental: Tryptophan synthase activity was assayed by monitoring the increase in absorbance at 290 nm of a mixture containing serine, indole and PLP (Higgins, W., et al., Biochemistry, 1979, 18, 4827). TnA-catalyzed tryptophan synthesis was also measured by the 290 nm assay, while the tryptophan lyase reaction rate was measured by monitoring the reduction in NADH in reaction mixtures containing L-tryptophan and lactate dehydrogenase, indicating the amount of pyruvate released. Tryptophan decarboxylase was assayed colorimetrically by monitoring the sabsorbance at 580 nm produced by serotonin (AAADs) or tryptamine (TDCs) following treatment of reaction aliquots with Ehrlich's reagent (4-N,N-(dimethyl)aminobenzaldehyde in ethanolic HCl; Nakazawa, H.; Kumagi, H.; Yamada, H. Biochem Biophys. Res. Commun., 1974, 61, 75-82). Serotonin could be detected with approximately 5-fold higher sensitivity by this method as compared with tryptamine. The Ehrlich reagent assay using a microtiter plate format for simultaneous analysis of multiple enzyme samples may also be used. HPLC analysis was performed on acid-quenched reaction aliquots by using a base-deactivated C8 reversed-phase support (Shandon Hypersil BD8). HPLC analysis of acid-quenched aliquots permitted calculation of a rate ratio of 4.5 to 1 for pkAAAD-catalyzed DOPA decarboxylation relative to that of L-5-hydroxytryptophan, in good agreement with the accepted ratio of approximately 5:1. (See Sourkes, T. L. Methods Enzymol., 1987, 142, 170-178, which is incorporated herein by reference.)
A mixture (0.95 mL) containing L-5-hydroxytryptophan (2 mM), PLP (0.25 mM) and pH 7.5 KPi buffer (44 mM) was warmed to 37° C., then 50 μL of enzyme was added. Reaction aliquots were quenched in microcentrifuge capsules containing 50 μL each of 6M HCl to quench the enzyme reaction at 2, 5, and 20 min. Quenched aliquots were heated at 50° C. for 40 min with 750 μL each of Ehrlich's reagent (2:24:74 w/v/v […]: conc HCl: ethanol). Absorbance was read at 580-nm and compared with standards of serotonin (10-250 μM) or tryptamine (50 to 2000 μM).
Decarboxylase enzyme activity was determined using L-5-hydroxytryptophan as the substrate unless otherwise stated.

[6] = Table 2, L-5-hydroxytryptophan as substrate

Molecule	TrpBA (tryptophan product spot, TLC analysis) [1]	TnA (tryptophan product spot, TLC analysis) [2]	other results
Cc1ccc2[nH]c(C)cc2c1 [2,5-dimethyl-]	+	−	
N#Cc1ccc2[nH]ccc2c1 [5-cyano-]	−	−	
NC(Cc1c[nH]c2ncccc12)C(=O)O (racemic) [DL-7-aza-trp]			SynAAAD (decarboxylation substrate screen) [3]: −; pkAAAD (decarboxylation substrate screen) [4]: −
COc1ccc2cc[nH]c2c1 [6-methoxyindole]	+	(+)	
Oc1cccc2[nH]ccc12 [4-hydroxy]	+	+	
Clc1ccc2cc[nH]c2c1 [6-chloroindole]	−	+	
N[C@@H](Cc1c[nH]c2ccc(CO)cc12)C(=O)O [L-5-(hydroxymethyl)-trp]			SynAAAD (decarboxylation substrate screen) [3]: −
Clc1cccc2cc[nH]c12 [7-chloro]	+	−	
Nc1cccc2[nH]ccc12 [4-amino-]	+	+	
O=C(O)c1cc2cc(Br)ccc2[nH]1 [5-bromoindole-2-carboxylic acid]	−		
Nc1ccc2[nH]ccc2c1 [5-amino-]	−	−	
O=[N+]([O-])c1ccc2[nH]ccc2c1 [5-nitro-]	−	−	
Fc1ccc2cc[nH]c2c1 [6-fluoroindole]	+	(+)	
Oc1ccc2[nH]ccc2c1 [5-hydroxy-]	+	+	
indoxyl acetate [4-acetoxy-[indoxyl acetate]]	+	+	
O=C(O)c1ccc2[nH]ccc2c1 [Indole-5-carboxylic acid]	−	−	
Clc1ccc2[nH]ccc2c1 [5-chloro-]	+	+	
O=[N+]([O-])c1cccc2[nH]ccc12 [4-nitro-]	−	−	
COc1ccc2[nH]c(C)cc2c1 [5-methoxy-2-methyl-]	+	−	
COc1ccc2[nH]cc(CC(N)C(=O)O)c2c1 (racemic) [DL-5-methoxy-trp]			SynAAAD (decarboxylation substrate screen) [3]: (+)
B1			Crude specific activity [5, 6]: 0.18 units/mg; Purified specific activity [5, 6]: 0.3 Units/mg; Crude specific activity ([5]; Table 3, decarboxylases): 0.18 units/mg; specific activity in crude extracts ([5]; crude extracts): 0.1-0.2 units/mg
B2			Crude specific activity [5, 6]: 0.05 units/mg; Purified specific activity [5, 6]: 0.2 Units/mg; Crude specific activity ([5]; Table 3, decarboxylases): 0.05 units/mg
